Key:
[1] = test system: 7PA2 cells (CHO cells stably expressing human APP751 V717F); test: 7PA2 cells: Aβ oligomers (IP/western) and Aβ ELISA; format: cell-based, Chinese hamster
Method: FIG. 17. γ-secretase modulators decrease the production of cell derived Aβ oligomers. CHO cells stably expressing human APP751 containing the familial Alzheimer's disease mutation V717F (referred to as 7PA2 cells) were incubated for ˜16 hours in the presence of GSMs. […] Aβ40 levels were decreased to varying degrees (26-35%; Li-Cor Odyssey). (B) and (C) Because the extended incubation times necessary to reliably detect Aβ oligomers in this assay can be toxic, we carried out additional dose response studies with fenofibrate and FT-9 to verify that decreases in Aβ oligomers levels were not related to toxicity or global inhibition of Aβ production. […] (C) Increasing doses of FT-9 reduced the detection of Aβ oligomeric bands and Aβ42 decreased preferentially with decreases in Aβ40 at higher doses. […] Aβ species present in conditioned medium were detected by IP using the polyclonal anti-Aβ antibody, DW6 and subsequent immunoblotting with either 6E10 or the 42-specific, anti-Aβ antibody 21F12. Aβ levels in the samples analyzed via IP/western were also quantified via sandwich ELISA. Data presented as percent vehicle control±s.e.m., n=2.
To address the question of whether GSMs influence the concentration of secreted amyloid-β oligomers, such as those released by Chinese hamster ovary (CHO) cells expressing the APP V717F mutation (referred to as 7PA2 cells), which alter long-term potentiation and perturb the memory of learned behavior when injected into rat brain, 7PA2 cells were treated with two Aβ42-raising GSMs and a novel Aβ42-lowering GSM (FIG. 17) (Walsh et al., Nature 416:535:539 (2002); Calabrese et al., Mol. Cell. Neurosci. 35:183-193 (2007)). Fenofibrate and FT-1 increased amounts of Aβ42 whereas FT-9 lowered Aβ42, but all three GSMs decreased amounts of amyloid-β dimers and trimers. […] In contrast to increased amyloid-β oligomer formation, when CHO cells are genetically manipulated to increase Aβ42 production by co-expression of APP and FAD-linked mutant PSEN1 proteins, both Aβ42-lowering and -raising GSMs decreased oligomer formation (Xia et al., J. Biol. Chem. 272: 7977-7982 (1997)).

Aβ42 = Aβ42 (Homo sapiens, UniProt P05067); test: Aβ42 aggregation in vitro (native gel electrophoresis); format: biochemical; settings: 1 μM, 37° C.
Chain of Aβ42 (P05067 672-713 limits assumed): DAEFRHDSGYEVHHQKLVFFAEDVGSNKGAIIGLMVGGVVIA
Method: FIG. 2. Aβ modulating agents can inhibit Aβ aggregation, and agents that bind Aβ amyloid can modulate Aβ42 production. […] (C) Aβ42 modulating agents inhibit naturally secreted oligomer formation. 7PA2 cells were treated with fenofibrate, FT-1, or FT-9 at 50 μM and oligomers assessed by IP Western blotting. […] (D) FT-9, an Aβ42 reducing agent, can inhibit Aβ42 aggregation in vitro.

APP(C100)-Flag = target: T1, APP(C100)-Flag (Homo sapiens, UniProt P05067); test: Photoaffinity labelling of APP(C100)-Flag and competition; format: binding
T1 construct: APP(C100)-Flag, comprising the 99 C-terminal residues of APP plus a methionine at the N-terminus; added methionine (N)
T1 sequence (P05067 672-770 limits assumed): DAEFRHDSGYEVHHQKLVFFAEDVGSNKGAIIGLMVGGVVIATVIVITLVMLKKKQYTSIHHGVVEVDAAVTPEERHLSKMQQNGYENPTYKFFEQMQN
Method: (§1) FIG. 1. […] The top panel is for anti-biotin staining; the middle panel is for anti-FLAG staining; and the bottom panel is an overlay of anti-biotin (red and anti-Flag green, LiCor Odyssey imaging). (E) Same samples as in D, but analyzed using an ELISA. Following crosslinking, C100Flag and N100 Flag were captured using anti-FLAG plate, and biotin incorporation was measured using streptavidin-HRP. […] Fen-B (50 μM) was crosslinked to Aβ (10 μM). Biotin labeling was measured following capture with an anti-Aβ1-16 antibody and detection with streptavidin-HRP.
(§2) Photoaffinity labelling. All experiments used the following general protocol. Samples (recombinant or synthetic peptides, cell lysates and membrane preparations) were exposed in borosilicate test tubes to ultraviolet light (350 nm) in a Rayonet Photoreactor R100 (RPR-3500 lamps, Southern New England Ultra Violet Company) in a cold room (4° C.) for 30 minutes or as otherwise noted. Crosslinked samples were analyzed by ELISA for biotin incorporation, or analyzed directly by SDS-PAGE (Criterion-XT, Bio-Rad), or after precipitation with streptavidin ultralink plus beads (Pierce). After immunblotting, proteins were detected using chemiluminesence (ECL Plus, GEHealthcare) or near-infrared fluorescence (LiCor Odyssey). Full-length APP and APP CTFs (CTF83, CTF99) were detected with CT20, a rabbit polyclonal antibody against the C-terminus of APP. Biotin was detected with an affinity-purified rabbit polyclonal antibody (Bethyl). Cell-based screens for amyloid-β modulation. Human H4 neuroglioma cells (American Type Culture Collection, ATCC) expressing wild-type APP695 protein or CTF105 fused to secreted alkaline phosphatase which is efficiently processed to APP CTFs (CTF83, CTF99) and produce high levels of amyloid-β, were used for the cell-based screens as previously described. Cells were incubated for 5-6 hours in the presence of the various compounds in Opti-Mem culture medium containing 1% fetal bovine serum. Compounds were dissolved in dimethylsulphoxide (DMSO; 0.5% final concentration) and diluted 200-fold. Media was analyzed for various amyloid-β species (40, 42 and total) using ELISAs as described herein. The EC50 values for changes in amyloid-β species were calculated by fitting sigmoid dose-response curves using nonlinear regression in Prism (GraphPad) and are shown as values±s.e.m. Statistical analysis. Data are presented as either percentage control or mean±s.e.m. Results were analyzed using Prism (Graph Pad) with t-tests or one-way analysis of variance analyses (ANOVAs) with Dunnett's post-hoc correction for comparison of multiple samples to a control. Statistical significance is shown as P,0.05 (one asterisk), P,0.01 (two asterisks) or P,0.001 (three asterisks).
The ability of a purified, recombinant Flag-tagged γ-secretase substrate derived from APP (APP(C100)-Flag, comprising the 99 C-terminal residues of APP plus a methionine at the N-terminus) to be labeled by Fen-B and Flurbi-BpB was tested.

γ-secretase = γ-secretase (Homo sapiens, UniProt P49768); test: Cell-free in vitro γ-secretase assay; format: biochemical
Method: FIG. 5. Fenofibrate-Biotin (Fen-B) is an Aβ42 raising GSM that labels cell-derived APP-CTF. (A) The effects of fenofibrate and fenofibrate-biotin (Fen-B) on Aβ production were investigated in a cell-free in vitro γ-secretase assay performed as described in the methods. […] Percent control Aβ species±s.e.m., n=2. (B) Fen-B labels APP-CTFs from cells lysates. CHAPSO solubilized membrane fractions from H4 APP-CTF-105-AP cells were irradiated (350 nm) in the presence of Fen-B (50 μM) for 30 minutes. Biotinylated material was precipitated with streptavidin overnight (SAv). Beads were washed (3×) and then incubated with XT sample buffer, heated to 95° C., run on 12% Criterion XT gels, and transferred to nitrocellulose membranes. Blots were probed for biotin (Bethyl) and APP (CT20). Excess drug (Fen-B) and unlableled APP-CTF is detected in the flow-through from the beads (unbound lane). Biotin bound to streptavdin (SAv) is detected by the anti-biotin antibody. APP-CTF-83 is pulled down in lane 2 and is reactive with anti-biotin and anti-APP (CT20).
Congo red (CR) and chrysamine G (CG), two of the most well characterized amyloid-β dyes, act as GSMs in cell-free γ-secretase assays.

APP-CTF = target: T2, APP-CTF (Homo sapiens, UniProt P05067); test: Photoaffinity labelling of APP and APP CTF in H4 cell membrane fractions and competition; format: binding; settings: microsomal membrane fractions from H4 cells expressing wild-type APP
T2 construct: this protein was designated α-secretase-derived APP CTF (CTF83) on the basis of molecular weight; expressed in transfected cells
T2 sequence (P05067 688-770 limits assumed): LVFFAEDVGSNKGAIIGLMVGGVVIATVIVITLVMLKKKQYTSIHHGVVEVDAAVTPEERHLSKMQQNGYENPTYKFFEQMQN
Method: (§3) Photoaffinity labelling. All experiments used the following general protocol. Samples (recombinant or synthetic peptides, cell lysates and membrane preparations) were exposed in borosilicate test tubes to ultraviolet light (350 nm) in a Rayonet Photoreactor R100 (RPR-3500 lamps, Southern New England Ultra Violet Company) in a cold room (4° C.) for 30 minutes or as otherwise noted. Crosslinked samples were analyzed by ELISA for biotin incorporation, or analyzed directly by SDS-PAGE (Criterion-XT, Bio-Rad), or after precipitation with streptavidin ultralink plus beads (Pierce). After immunblotting, proteins were detected using chemiluminesence (ECL Plus, GEHealthcare) or near-infrared fluorescence (LiCor Odyssey). Full-length APP and APP CTFs (CTF83, CTF99) were detected with CT20, a rabbit polyclonal antibody against the C-terminus of APP. Biotin was detected with an affinity-purified rabbit polyclonal antibody (Bethyl). Cell-based screens for amyloid-β modulation.

Notch (C100)-Flag = target: T3, Notch (C100)-Flag (Mus musculus, UniProt Q01705); test: Photoaffinity labelling of Notch (C100)-Flag; format: binding
T3 construct: a recombinant substrate derived from mouse Notch (Notch (C100)-Flag)
T3 sequence (Q01705 1711-1809 limits assumed): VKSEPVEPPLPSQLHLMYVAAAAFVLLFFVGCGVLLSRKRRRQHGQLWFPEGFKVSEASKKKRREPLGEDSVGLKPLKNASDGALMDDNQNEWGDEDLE
Method: as §3, with “modulation. […] Media was analyzed for various amyloid-β species (40, 42 and total) using ELISAs as described herein. The EC50 values for changes in amyloid-β species were calculated by fitting sigmoid dose-response curves using nonlinear regression in Prism (GraphPad) and are shown as values±s.e.m. […]” for “modulation.”

[2] = target: T4, γ-secretase (PSEN1, NCSTN, APH1, PEN2) (UniProt +P49768+Q96BI3+Q9NZ42); test: Photoaffinity labelling of purified γ-secretase preparation; format: binding; settings: Fen-B 300 μM
T4 construct: made in house; host or cells: CHO c-30 (γ-30) cells

H4Bri-C99 (CTF-3) = test system: H4Bri-C99 (CTF-3)
Method: FIG. 6. […] Parent GSMs and biotin tagged photoactivatable GSMs were evaluated for their effects on Aβ secreted from H4Bri-C99 (CTF-3). Cells were treated with compounds for 6 hours and Aβ measured by ELISA. […] Changes in Aβ (percent control)±s.e.m., n=3.
as §2

[3] = target: amyloid-β peptides (Aβ1-40, Aβ1-36, Aβ1-28, Flag-Aβ25-36) (Homo sapiens, UniProt P05067); test: Photoaffinity labelling of amyloid-β peptides; format: binding
Method: as §1, §2
Because the putative binding region of GSMs is also found in full-length APP, labeling of both APP fragments in cells was assayed.

[4] = FT-9 and FT-1 20 μM, fenofibrate 100 μM, ~16 hours

Compound | total Aβ (ELISA) in dose response studies [1] | naturally secreted oligomer formation ([1]; 50 μM, IP Western blotting) | Aβ42 production in 7PA2 cells [1, 4] | dimeric and trimeric Aβ species [1, 4] | Aβ42 aggregation in vitro (Aβ42) | labeling of APP(C100)-Flag (APP(C100)-Flag) | labeling of CTF-γ (CTF-50) (APP(C100)-Flag; peptides 5 μM, Fen-B 25 μM, 30 minutes) | Aβ42 in cell-free γ-secretase assay (γ-secretase) | labeling of full-length APP and APP CTFs (APP-CTF) | labeling of Notch (C100)-Flag (Notch (C100)-Flag) | labeling of γ-secretase components [2] | Toxicity, based on cell morphology and XTT assay (H4Bri-C99 (CTF-3)) | Aβ42 increase (H4Bri-C99 (CTF-3); 33 μM, 6 hours) [%] | labeling of Aβ1-28 [3] | labeling of Aβ1-36 [3] | labeling of Aβ1-40 [3] | labeling of Flag-tagged Aβ25-36 [3]
CC(C(=O)O)c1cccc(Oc2cc(Cl)cc(Cl)c2)c1 (centres unmarked) [FT-9, 2-(3-(3,5-dichlorophenoxy)phenyl)propanoic acid] | did not decrease | inhibit oligomer formation | lowers Aβ42 | reduce production of dimeric and trimeric Aβ species | inhibits Aβ42 aggregation |  |  |  |  |  |  |  |  |  |  |  | 
CC(C)(Oc1ccc(C(=O)c2ccc(Cl)cc2)cc1)C(=O)NCCCCCNC(=O)CCCCC1SCC2NC(=O)NC21 (centres unmarked) [Fen-B, N-(5-(2-(4-(4-chlorobenzoyl)phenoxy)-2-methylpropanamido)pentyl)-5-(2-oxo-hexahydro-1H-thieno[3,4-d]imidazol-4-yl)pentanamide] |  |  |  |  |  | label a recombinant APP c-secretase substrate (APP(C100)-Flag) with similar potency | no evidence for binding to CTF-γ | raise Aβ42 with similar potencies | labeled full-length APP and APP CTFs | less efficient than Fen-B labeling of the APP(C100)-Flag | Absence of PS1, NCT, APH1, and Pen2 labeling | toxic at higher doses | ~200 | did not label | efficiently labeled | efficiently labeled | preferentially label

Source: US20110021471A1, “REDUCING Abeta42 LEVELS AND Abeta AGGREGATION” (priority 2007, published 2011)
